Measured values taken from patent US9504675B2, “Alpha-ketoheterocycles and methods of making and using” (The Scripps Research Institute, priority 2011, dated 2016).
Entries after “also recorded” stand apart in the source; their conditions may differ.

What was measured:
[1] = molecular target: T1, human FAAH (hFAAH) (Homo sapiens, UniProt O00519); test: Enzyme assay: inhibition of human FAAH (lysate of hFAAH-transfected COS-7 cells), 14C-oleamide hydrolysis; format: biochemical; conditions: for reduction in activity against the human enzyme versus rat FAAH: hFAAH vs rFAAH, active (S)-enantiomers; for Ki: Table 5, active (S)-enantiomers
T1 construct: The full-length human FAAH (hFAAH) was expressed in COS-7 cells; expressed in transfected cells; host or cells: COS-7 (transiently transfected with human FAAH cDNA)
T1 sequence (O00519 1-579): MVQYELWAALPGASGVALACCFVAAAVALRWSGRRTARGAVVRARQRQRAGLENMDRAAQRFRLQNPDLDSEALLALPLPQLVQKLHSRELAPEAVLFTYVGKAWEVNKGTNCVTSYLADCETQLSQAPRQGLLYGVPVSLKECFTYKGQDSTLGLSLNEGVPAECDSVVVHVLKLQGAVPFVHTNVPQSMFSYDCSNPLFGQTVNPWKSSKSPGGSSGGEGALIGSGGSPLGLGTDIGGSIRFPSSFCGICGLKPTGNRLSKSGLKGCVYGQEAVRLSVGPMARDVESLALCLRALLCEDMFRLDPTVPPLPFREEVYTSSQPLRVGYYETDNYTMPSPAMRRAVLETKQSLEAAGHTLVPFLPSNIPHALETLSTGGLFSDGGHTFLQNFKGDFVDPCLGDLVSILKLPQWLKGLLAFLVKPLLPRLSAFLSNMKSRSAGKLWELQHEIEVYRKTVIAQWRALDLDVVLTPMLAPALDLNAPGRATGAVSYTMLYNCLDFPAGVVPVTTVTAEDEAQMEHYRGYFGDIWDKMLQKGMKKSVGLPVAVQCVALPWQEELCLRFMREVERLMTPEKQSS
Procedure: Enzyme assays were performed at 20-23° C. with purified recombinant rat FAAH expressed in Escherichia coli or with solubilized COS-7 membrane extracts from cells transiently transfected with human FAAH cDNA (where specifically indicated) in a buffer of 125 mM Tris/1 mM EDTA/0.2% glycerol/0.02% Triton X-100/0.4 mM Hepes, pH 9.0.
^14C-labeled oleamide was prepared from ^14C-labeled oleic acid. The truncated rat FAAH (rFAAH) was expressed in E. coli and purified. The purified recombinant rFAAH was used in the inhibition assays unless otherwise indicated. The full-length human FAAH (hFAAH) was expressed in COS-7 cells as described, and the lysate of hFAAH-transfected COS-7 cells was used in the inhibition assays where explicitly indicated.
The inhibition assays were performed as follows. […] The enzyme reaction was terminated by transferring 20 μL of the reaction mixture to 500 μL of 0.1 N HCl at three different time points. The ^14C-labeled oleamide (substrate) and oleic acid (product) were extracted with EtOAc and analyzed by TLC as detailed. The Ki of the inhibitor was calculated using a Dixon plot as described (standard deviations are provided in the Supporting Information tables).

[2] = tested on: endogenous levels of FAAH substrates AEA, PEA, OEA and of 2-AG, AA; test: In vivo pharmacodynamic studies: brain and liver lipid levels after inhibitor treatment (LC-MS); parameters: species or system mouse (C57BL/6J)
Procedure: This includes monitoring the effects of the inhibitors on the endogenous levels of the FAAH substrates anandamide (AEA, N-arachidonoyl ethanolamine), N-oleoyl ethanolamine (OEA), and N-palmitoyl ethanolamine (PEA), as well as the key lipids 2-arachidonoylglycerol (2-AG) and arachidonic acid (AA) that are not endogenous substrates for FAAH.
Inhibitors were prepared as a saline-emulphor emulsion for intraperitoneal (i.p.) administration by vortexing, sonicating, and gently heating neat compound directly into an 18:1:1 v/v/v solution of saline:ethanol:emulphor, or as a homogeneous PEG solution for oral administration (p.o.) by vortexing, sonicating, and gently heating neat compound directly into PEG300 (Fluka). Male C57BL/6J mice (<6 months old, 20-28 g) were administered inhibitors in saline-emulphor emulsion or an 18:1:1 v/v/v saline:emulphor:ethanol vehicle i.p. at a volume of 10 μL/g weight, or alternatively inhibitors in PEG300 or a PEG300 vehicle p.o. at a volume of 4 μL/g weight. After the indicated amount of time, mice were anesthetized with isofluorane and killed by decapitation. Total brains (˜400 mg) and a portion of the liver (˜100 mg) were removed and flash frozen in liquid N2.
Tissue was weighed and subsequently Dounce homogenized in 2:1:1 v/v/v CHCl3:MeOH:Tris pH 8.0 (8 mL) containing standards for lipids (50 pmol d4-PEA, 2 pmol d4-AEA, 0.5 nmol ds-2-AG, and 10 nmol pentadecanoic acid). The mixture was vortexed and then centrifuged (1,400×g, 10 min). The organic layer was removed, dried under a stream of N2, resolubilized in 2:1 v/v CHCl3:MeOH (120 μL), and 10 μL of this resolubilized lipid was injected onto an Agilent G6410B QQQ instrument. […] Mobile phase A was composed of a 95:5 v/v H2O:MeOH, and mobile phase B was composed of a 65:35:5 v/v/v i-PrOH:MeOH:H2O. 0.1% Formic acid or 0.1% ammonium hydroxide was included to assist in ion formation in positive and negative ionization mode, respectively. The flow rate for each run started at 0.1 mL/min with 0% B. At 5 min, the solvent was immediately changed to 60% B with a flow rate of 0.4 mL/min and increased linearly to 100% B over 10 min. […] MS analysis was performed with an electrospray ionization (ESI) source. […] For negative polarity, the analysis was performed in MS2 scan mode from 100-1000 m/z. The capillary was set to 4 kV, the fragmentor was set to 100 V, and the delta EMV was set to 0. Lipids were quantified by measuring the area under the peak in comparison to the standards.

[3] = Rat liver microsome stability (rlm t1/2); format: in vitro ADME; conditions: rat liver microsomes
[4] = Human liver microsome stability (hlm t1/2); format: in vitro ADME; conditions: human liver microsomes
[5] = molecular target: T2, recombinant rat FAAH (rFAAH) (Rattus norvegicus, UniProt P97612); test: Enzyme assay: inhibition of purified recombinant rat FAAH, 14C-oleamide hydrolysis, Ki by Dixon plot; format: biochemical; conditions: for Ki: rFAAH, Table 5, active (S)-enantiomers
T2 construct: The truncated rat FAAH (rFAAH) was expressed in E. coli and purified; made in house; host or cells: Escherichia coli
T2 sequence (P97612 30-579 limits assumed): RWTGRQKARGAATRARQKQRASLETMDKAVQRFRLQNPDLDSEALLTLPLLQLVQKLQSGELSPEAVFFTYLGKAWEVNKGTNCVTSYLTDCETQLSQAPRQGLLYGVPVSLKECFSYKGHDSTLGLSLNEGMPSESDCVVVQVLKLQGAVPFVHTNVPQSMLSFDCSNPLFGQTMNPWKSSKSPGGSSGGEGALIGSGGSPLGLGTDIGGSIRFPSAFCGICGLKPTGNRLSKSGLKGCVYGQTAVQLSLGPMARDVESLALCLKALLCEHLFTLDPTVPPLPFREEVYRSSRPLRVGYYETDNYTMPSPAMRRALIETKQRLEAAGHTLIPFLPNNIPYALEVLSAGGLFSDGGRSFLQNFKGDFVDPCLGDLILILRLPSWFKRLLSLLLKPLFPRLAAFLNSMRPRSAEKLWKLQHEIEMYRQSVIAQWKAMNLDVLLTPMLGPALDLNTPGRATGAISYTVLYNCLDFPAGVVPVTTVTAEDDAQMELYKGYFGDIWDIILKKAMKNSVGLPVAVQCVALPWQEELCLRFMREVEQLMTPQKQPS
Procedure, shortened: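 Hydrolysis of 14C-oleamide at 20-23° C by purified truncated rat FAAH expressed in E. coli or by lysate of COS-7 cells transfected with full-length human FAAH, in 125 mM Tris/1 mM EDTA/0.2% glycerol/0.02% Triton X-100/0.4 mM Hepes, pH 9.0. Reaction stopped in 0.1 N HCl at three time points; substrate and product separated by TLC; Ki from Dixon plot.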

[6] = tested on: mice with CCI neuropathic pain; test: Chronic constriction injury (CCI) of the sciatic nerve: mechanical (von Frey) and cold (acetone) allodynia; format: in vivo, mouse (C57BL/6); conditions: 50 mg/kg p.o.
Procedure: Surgery was performed as follows. Briefly, the right hind leg of male C57BL/6 mice was shaved and swabbed with betadine solution and ethanol. Posterior to the femur, an incision was made and the sciatic nerve was visualized and isolated, following muscle separation. The nerve was ligated twice with 5-0 (1.0 metric) black silk braided suture (Surgical Specialties Corporation, Reading, Pa.). The surrounding muscle and skin were then sutured with 6-0 nylon. Mice were recovered in a heated cage and observed for approximately 2 h before being returned to the vivarium.
Allodynia was initially tested 10 days after surgery. Male C57BL/6 mice were habituated to the test apparatus for 2 h on the 2 days prior to testing. On the test day, the mice were brought into the test room, weighed, and allowed to acclimate for at least 1 h before the start of the experiment. […] Mechanical (von Frey) and cold (acetone-induced) allodynia were tested at 1, 3, 6, and 9 h post drug administration. Testing was carried out by a separate observer who was blinded to treatment conditions. Mechanical allodynia was assessed with von Frey filaments (North Coast Medical, Morgan Hill, Calif.), using the “up-down” method. Each hind paw was stimulated 5 times per filament (0.16-6.0 g), starting with the 0.6 g filament and increasing weight. Paw clutching or lifting, in response to three or more stimulations, was coded as a positive response. Once a positive response was detected, sequentially lighter-weight filaments were used to assess paw withdrawal threshold. Approximately 30 min after completing the von Frey test, cold allodynia was tested by propelling 10 μL of acetone (Fisher Bioscience) via air burst, from a 200 μL pipette (Rainin Instruments, Oakland, Calif.) onto the plantar surface of each hind paw. Total time lifting or clutching each paw was recorded, with a maximum time of 20 s.
Data Analyses: Behavioral data were analyzed using a two-way mixed factorial analysis of variance (ANOVA) for each paw, with drug treatment as the between subjects measure, and time as the within subjects measure. Follow-up comparisons were made using the Bonferroni test. All animals were included in the analyses. Differences between groups were considered statistically significant at p<0.05.

[7] = tested on: catalepsy, hypothermia, hypomotility (THC-like effects); test: Cannabimimetic side effects after oral administration; format: in vivo; conditions: oral administration 50 mg/kg
[8] = tested on: mice, acute thermal pain (tail flick at 52° C.); test: Mouse tail flick assay (52° C. warm water), acute thermal pain; format: in vivo, mouse (CD-1); conditions: i.v. administration
Procedure: Concurrent with these studies, two prototypical inhibitors 12 and 14 were examined for antinociceptive activity in a preclinical model of acute thermal pain (tail flick at 52° C.) in mice alongside 2 and morphine (i.v. administration).
Male CD-1 (25-35 g, Charles River) mice were housed in groups of five in Plexiglas chambers with food and water available ad libitum. All animals were maintained on a 12 h light/dark cycle (lights on at 7:00 AM) in a temperature- and humidity-controlled animal colony. All tail-flick experiments were performed under an approved University of New England animal protocol in accordance with institutional guidelines and in accordance with the Guide for the Care and Use of Laboratory Animals as adopted and promulgated by the National Institutes of Health. Efficacy of the test compound was assessed using the 52° C. warm water tail-flick test. The latency to the first sign of a rapid tail-flick was taken as the behavioral endpoint. Each mouse was first tested for baseline latency by immersing its tail in the water and recording the time to response. Mice not responding within 5 sec were excluded from further testing. Mice were then administered the test compound and tested for antinociception at various time points afterwards. Antinociception was calculated by the following formula: % Antinociception=100×(test latency−control latency)/(10−control latency). A maximum score was assigned (100%) to animals not responding within 10 sec to avoid tissue damage.

[9] = Table 6, 30 mg/kg i.p., 1 h, single mouse
[10] = Table 6, 30 mg/kg i.p., 1 h, single mouse, vs vehicle
[11] = 50 mg/kg p.o., time course up to 9 h
[12] = Table 7, i.p. (30 mg/kg), 3 mice per group
[13] = Table 7, oral (50 mg/kg), 3 mice per group
[14] = Table 7, i.p. (30 mg/kg), 3 mice per group, vs vehicle
[15] = Table 7, oral (50 mg/kg), 3 mice per group, vs vehicle

Structure (SMILES) | reduction in activity against the human enzyme versus rat FAAH [1] | Brain AEA [2, 9] | Brain PEA [2, 9] | Liver 2-AG [2, 9] | Liver AEA [2, 9] | Liver PEA [2, 9] | Brain AEA (fold increase) [2, 10] | Brain PEA (fold increase) [2, 10] | Liver 2-AG (fold increase) [2, 10] | Liver AEA (fold increase) [2, 10] | Liver PEA (fold increase) [2, 10] | half-life [3] | half-life [4] | Ki [5] | Ki [1] | Brain 2-AG [2, 9] | Brain AA [2, 9] | Brain 2-AG [2, 12] | Brain AEA [2, 12] | Brain PEA [2, 12] | further results
O=C(CCCCCCc1ccccc1)c1ncc(-c2ccccn2)o1 [Compound 2, reference compound] | no significant distinction | 38 pmol/g | 540 pmol/g | 0.28 pmol/g | 14 pmol/g | 208 pmol/g | 4.8 fold increase | 5.0 fold increase | 0.9 fold increase | 7 fold increase | 1.6 fold increase | 2 to 4 min | 2 to 4 min | – | – | – | – | – | – | – | increase in brain levels of anandamide ([2]; p.o. 50 mg/kg, 1 h): 11 fold
O=C(c1ncc(-c2ccccn2)o1)C1CCc2cc(Oc3ccccc3)ccc2C1 (stereo not shown) [Compound 12, (6-Phenoxy-1,2,3,4-tetrahydronaphthalen-2-yl)(5-(pyridin-2-yl)oxazol-2-yl)methanone] | no significant distinction | 42 pmol/g | 785 pmol/g | 0.25 pmol/g | 12 pmol/g | 472 pmol/g | – | – | – | – | – | – | – | 0.0044 µM | 0.0058 µM | 13 pmol/g | 170 pmol/g | 7.0 pmol/g | 28.6 pmol/g | 599 pmol/g | mode of inhibition (Lineweaver-Burk analysis) [5]: reversible, competitive inhibitor; also recorded: competitive, reversible inhibition; duration of elevation of brain N-acylethanolamines (AEA, PEA, OEA) [2, 11]: maintained over the 9 h time course; time of peak brain levels of anandamide [2, 11]: 1.5 to 3 h; Brain 2-AG [2, 13]: 11.5 pmol/g; Brain AEA [2, 13]: 43.2 pmol/g; Brain PEA [2, 13]: 772 pmol/g; increases in brain levels of N-palmitoyl ethanolamine and N-oleoyl ethanolamine ([2]; p.o. 10, 25 and 50 mg/kg, 1 h): 5.5-7.8 fold; increase in brain levels of anandamide ([2]; p.o. 25-50 mg/kg, 1 h): 12-13 fold; duration of effect on cold allodynia [6]: > 9 h; duration of effect on mechanical allodynia [6]: > 6 h; mechanical or cold allodynia in control (contralateral) paws [6]: no effect; duration of attenuation of neuropathic pain ([6]; FIG. 9 legend): up to 9 hours; cannabimimetic side effects [7]: did not produce catalepsy, hypothermia, or hypomotility
O=C(O)c1cccc(-c2cnc(C(=O)C3CCc4cc(Oc5ccccc5)ccc4C3)o2)n1 (stereo not shown) [Compound 14, 6-(2-(6-Phenoxy-1,2,3,4-tetrahydronaphthalene-2-carbonyl)oxazol-5-yl)picolinic acid] | 4 fold | 12 pmol/g | 224 pmol/g | 0.35 pmol/g | 10 pmol/g | 284 pmol/g | 1.5 fold increase | 2.0 fold increase | 1.1 fold increase | 5 fold increase | 2.1 fold increase | – | – | 0.025 µM | 0.11 µM | 14 pmol/g | 154 pmol/g | 8.5 pmol/g | 9.0 pmol/g | 321 pmol/g | Brain 2-AG (fold increase) [2, 10]: 1.0 fold increase; Brain AA (fold increase) [2, 10]: 0.7 fold increase; Brain AEA (fold increase) [2, 14]: 1.6 fold increase; Brain PEA (fold increase) [2, 14]: 4.5 fold increase; Brain 2-AG [2, 13]: 11.2 pmol/g; Brain AEA [2, 13]: 19.8 pmol/g; Brain PEA [2, 13]: 260 pmol/g; Brain AEA (fold increase) [2, 15]: 3.5 fold increase; Brain PEA (fold increase) [2, 15]: 3.7 fold increase; dose needed for maximal effect relative to morphine [8]: 2 fold; duration of antinociceptive effect [8]: 150 min; time of maximal antinociceptive effect [8]: 30 to 60 min; maximal antinociceptive effect (efficacy) ([8]; dose-response alongside morphine): same maximal effect (efficacy) observed with morphine
O=C(c1ncc(-c2ccccn2)o1)C1CCc2cc(OCc3ccccc3)ccc2C1 (stereo not shown) [Compound 18, (6-(Benzyloxy)-1,2,3,4-tetrahydronaphthalen-2-yl)(5-(pyridin-2-yl)oxazol-2-yl)methanone] | – | – | – | – | – | – | – | – | – | – | – | 12 to 15 min | 12 to 15 min | – | – | – | – | – | – | – | –
